In patent US11197862B2, “Methods of preventing toxicity of platinum drugs” (XOMICS BIOPHARMA, INC., priority 2015, dated 2021):
Like-named read-outs stand apart in the source and are kept apart here.

How the values were obtained:
OCT2 [1] = biological target: T1, OCT2 (Homo sapiens, UniProt O15244); test: Inhibition of OCT2-mediated oxaliplatin uptake in transfected MDCK-II cells (protein-free HBSS); conditions: for inhibition at 30 min, 5 μM / inhibition at 30 min, 50 μM / potency estimated from few doses at 30 min: human
T1 sequence (O15244 1-555): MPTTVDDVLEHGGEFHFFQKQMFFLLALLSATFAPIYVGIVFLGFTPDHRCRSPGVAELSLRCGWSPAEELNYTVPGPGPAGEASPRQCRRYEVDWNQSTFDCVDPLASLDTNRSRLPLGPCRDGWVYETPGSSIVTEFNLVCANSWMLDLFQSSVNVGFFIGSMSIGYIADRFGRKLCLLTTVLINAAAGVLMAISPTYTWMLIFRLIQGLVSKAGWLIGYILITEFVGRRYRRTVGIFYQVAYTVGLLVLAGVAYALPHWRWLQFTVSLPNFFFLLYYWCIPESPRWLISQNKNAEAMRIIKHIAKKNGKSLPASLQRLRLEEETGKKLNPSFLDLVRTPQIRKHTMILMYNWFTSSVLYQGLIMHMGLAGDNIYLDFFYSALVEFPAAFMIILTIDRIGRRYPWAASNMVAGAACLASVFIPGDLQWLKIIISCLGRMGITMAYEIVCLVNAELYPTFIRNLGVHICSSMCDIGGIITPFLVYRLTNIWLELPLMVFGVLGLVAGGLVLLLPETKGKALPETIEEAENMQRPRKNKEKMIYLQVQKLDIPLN
Source text: Fully confluent MDCK cell monolayers were transfected with either cDNA plasmids encoding the human transporter to be tested or a GFP control. […] The cells were then washed with ice-cold PBS and lysed with 50:50 acetonitrile:H2O. Intracellular content of the substrate was quantified by LC/MS/MS or a MicroBeta radiometric plate reader.

[2] = human, in vivo
OCT2 [3] = biological target: T1, OCT2; conditions: cited from earlier work
[4] = cited from earlier work
HepG2 cells = test: Anti-proliferation study (SRB assay) in HepG2 cells; conditions: FIG. 10
Description: (§1) The potency was determined by the sulforhodamine B (SRB) assay in 96-well plates. […] Seeding density was 3000 cells/well for both cell lines.

[5] = tested on: MDCK cells expressing OCT2, MATE1 and MATE2K; test: LDH cytotoxicity of oxaliplatin in MDCK-II triple-transporter model; conditions: for effect on oxaliplatin induced cytotoxicity in OCT2 expressing cells: buflomedil 3 and 6 μM, dolutegravir 10 μM, erlotinib 6 μM, cimetidine 6 μM, FIG. 6
Description: A triple-transporter model for OCT2(SLC22A2), MATE1(SLC47A1), and MATE2-K(SLC47A2) was created by transfecting fully confluent MDCK-II cell monolayers with DNA mixture containing the plasmids encoding OCT2, MATE1, and MATE-2K at concentrations of 40, 15, and 5 ng/μl, respectively. The OCT2 was expressed on the basolateral cell membrane, and MATE1 and MATE2-K were expressed on the apical side of the cells. […] The apical medium was adjusted to pH 6.7 with 25 mM of 2-(N-morpholino) ethanesulfonic acid (MES).
After removal of the media, a drug-free medium was added in both sides. After incubation 24 hours, the medium was collected, and the lactate dehydrogenase (LDH) activity in the medium was measured using an LDH cytotoxicity assay kit (G-Biosciences. St. Louis, Mo.; or Biochain, Newark, Calif.), according to the manufacturers' instructions. Cytotoxicity was evaluated by measuring the LDH activity in the medium.
Cytotoxicity was tested using the same procedure described above.

OCT2 [6] = biological target: T1, OCT2; test: Inhibition of OCT2-mediated ASP+ uptake (Kido et al., Giacomini group); conditions: human, cell line expressing human OCT2 (cell line not given), probe ASP+ 5 μM
OCT2 [7] = biological target: T1, OCT2; test: Inhibition of OCT2-mediated metformin uptake in transfected MDCK-II cells
OCT2 [8] = biological target: T1, OCT2; test: Inhibition of OCT2-mediated oxaliplatin transport in 100% human serum or HBSS containing 4% BSA (IC50,app); conditions: for transporter preference in inhibiting oxaliplatin transport: serum or 4% BSA
[9] = tested on: cells co-expressing OCT2 and MATE1; test: Intracellular oxaliplatin content in cells co-expressing OCT2 and MATE1; type: cell-based; conditions: oxaliplatin 100 μM in 4% BSA HBSS, 90 min
Source text: In most naturally occurring cells, uptake transporters co-exist with efflux transporters. It is the interplay between the uptake and efflux transporters that determines the net intracellular accumulation of a substrate. One example is in the proximal tubule epithelial cells in the kidney, where the basolaterally expressed transporters, mainly OCT2, work in concert with the apically expressed MATE1 and MATE2K [5]. […] Cells with single expression of OCT2 or GFP mock were also used as a control.

[10] = Published clinical pharmacokinetic data; conditions: from published Cmax and protein binding
HT-29 cells = test: Anti-proliferation study (SRB assay) in HT-29 cells; conditions: co-treatment; FIG. 11
Description: as §1

OCT2 [11] = biological target: T1, OCT2; test: in vitro
OCT2 [12] = biological target: T1, OCT2; test: in vitro; remark: listed apart in the source
[13] = tested on: Balb/c mice exposed to chronic treatment with Oxaliplatin; test: Morphometry and histopathology of DRG neurons in chronic oxaliplatin neuropathy model; type: in vivo, mouse
Source text: The investigator was blind to the nerve and DRG conditions for these analyses. Three animals from each group were sacrificed four days after the last oxaliplatin dose. The left sciatic nerves and the L4-L5 DRGs were harvested and processed following previously reported protocols, resin embedded and sectioned for light and electron microscope analysis. For the light microscopy analysis, 1 μm semithin sections were stained with toluidine blue and examined using a Nikon Eclipse E200 light microscope (Nikon, Firenze, Italy). For the electron microscopy analysis, ultrathin sections (80 nm) counterstained with uranyl acetate and lead citrate, were examined with a Philips CM 10 transmission electron microscope (Philips, Eindhoven, Netherlands).
The investigator was blind to the experimental conditions of the tissue for these experiments. One micron thick semithin sections stained with toluidine blue were used for morphometric examination of the DRGs from control (n=3) and oxaliplatin-treated mice (n=3). (Renn et al. Molecular Pain 2011, 7:29). Only the cells where the nucleolus was included in the section plane of 50 μm-spaced out sections were considered to avoid the overlapping of the same cell bodies and they were analyzed with computer-assisted image analysis (ImageJ, NIH) to measure the soma and nucleolus size of at least 300 DRG neurons per mouse.

[14] = tested on: Balb/c mice exposed to chronic treatment with Oxaliplatin; test: Dynamic Plantar Aesthesiometer Test in chronic oxaliplatin neuropathy model; type: in vivo, mouse; conditions: OXA 3.5 mg/kg iv, 8 cycles ± BFMD 30 mg/kg ip + 15 mg/kg iv
Description: The Dynamic Plantar Aesthesiometer Test was used to determine the alterations in mechanical pain perception and their changes due to pharmacological treatment. Mice were accustomed to the device 3 days before performing the tests after a 1 hour acclimatization period followed by testing. The mechanical nociceptive threshold was assessed using a Dynamic Aesthesiometer Test (model 37450, Ugo Basile Biological Instruments, Comerio. Italy), which generated a linearly increasing mechanical force. At each time point, after the acclimatization period, a servo-controlled mechanical stimulus (a pointed metallic filament, 0.5-mm diameter) was applied to the plantar surface of the hind paw, which exerted a progressively increasing punctuate pressure, reaching up to 15 g within 15 seconds. The pressure evoking a clear voluntary hind-paw withdrawal response was recorded automatically and taken as representing the mechanical nociceptive threshold index. The mechanical threshold was always assessed alternatively on each side every 2 minutes on 3 occasions to yield a mean value. The results represent the maximal pressure (expressed in grams) tolerated by the animals. There was an upper limit cutoff of 30 seconds, after which the mechanical stimulus was automatically terminated.

[15] = tested on: Balb/c mice exposed to chronic treatment with Oxaliplatin; test: Cold Plate Test in chronic oxaliplatin neuropathy model; type: in vivo, mouse; conditions: OXA 3.5 mg/kg iv ± BFMD 30 mg/kg ip + 15 mg/kg iv
Description: Cold Plate Test was used to determine the alterations in cold temperature related pain perception and their changes due to pharmacological treatment. Cold Plate Test was performed by using an apparatus (35100—Hot/Cold Plate. Ugo Basile instruments) composed by a Plexiglas cylinder and a thermostatic plate, able to reach variable temperatures. The mice were placed on the plate set at +4° C., free to move and walk. Two blinded experimenters simultaneously determine the number of pain signs (e.g. jumping, licking, etc.) in a trial of 5 minutes.

[16] = tested on: Balb/c mice exposed to chronic treatment with Oxaliplatin; test: Caudal nerve conduction study in chronic oxaliplatin neuropathy model; type: in vivo, mouse; conditions: OXA 3.5 mg/kg iv, 8 cycles ± BFMD 30 mg/kg ip + 15 mg/kg iv
Description: The development of peripheral neuropathy after chronic administration of drugs was assessed by evaluating the nerve conduction velocity (NCV) along caudal and digital nerve using an electromyography apparatus (Myto2 ABN Neuro, Firenze, Italy). Caudal NCV was determined by placing a couple of recording needle electrodes at the base of the tail and a couple of stimulating needle electrodes 3.5 cm distally to the recording points. Similarly, the digital NCV was determined by placing the recording electrodes close to the ankle bone and the stimulating electrodes close to the fourth toe near the digital nerve. The intensity, duration and frequency of stimulation were set up in order to obtain optimal results. All the neurophysiological determinations were performed under standard conditions in a temperature-controlled room (22+/−2° C.) and the animal under isoflurane anesthesia along the whole procedure with continuous monitoring of vital signs.

[17] = Plasma levels of buflomedil and oxaliplatin in the chronic model; type: in vivo, mouse; conditions: 15 minutes after the 8th cycle
Description: At baseline (before drug treatment) and at the end of treatment, caudal nerve conduction study (NCS), behavioral tests (Dynamic and Cold Plate), histopathology study were performed. Serum samples were collected at the end of treatment.

[18] = cited from earlier work; remark: listed apart in the source
[19] = MDCK-II cells transfected with human OCT2, probe oxaliplatin 10 μM

CN/C(=N/CCSCc1nc[nH]c1C)NC#N [Cimetidine]
IC50 (OCT2 [1]): 9.71 µM
inhibition at 30 min, 5 μM (OCT2 [1]): 34%
inhibition at 30 min, 50 μM (OCT2 [1]): 83%
potency estimated from few doses at 30 min (OCT2 [1]; IC50 (μM) (substrate Oxaliplatin)): 9.7 µM
Plasma peak unbound concentration Cmax,u [2]: 9600 nM
Inhibition % @ 20 μM (substrate ASP+) (OCT2 [3]; OCT2-mediated uptake, ASP+ 5 μM in HBSS, from Kido Y et al. J Med Chem 2011): 43%
Plasma protein binding (%) ([4]; published data): 20%
effect on anti-tumor potency of oxaliplatin in HepG2 (HepG2 cells): nor cimetidine
effect on oxaliplatin induced cytotoxicity in OCT2 expressing cells [5]: did not reduce oxaliplatin cytotoxicity
potency estimated from few doses (OCT2 [6]): 26.4 µM
IC50 (OCT2 [7]): 57.6 ± 6.9 µM
IC50 (OCT2 [8]; IC50,app (μM), apparent inhibition constant in 100% human serum or HBSS containing 4% BSA, OCT2-mediated oxaliplatin uptake): 36.8 µM
IC50 (OCT2 [8]; OCT2 IC50, app (μM), 100% human serum or HBSS containing 4% BSA, 20 μM or 100 μM oxaliplatin): 36.8 ± 13.6 µM
transporter preference in inhibiting oxaliplatin transport (OCT2 [8]): even more preference towards inhibiting oxaliplatin transport through MATE1

C#Cc1cccc(Nc2ncnc3cc(OCCOC)c(OCCOC)cc23)c1 [Erlotinib]
inhibition at 30 min, 5 μM (OCT2 [1]; [19]): 93%
inhibition at 30 min, 50 μM (OCT2 [1]; [19]): 106%
cellular accumulation of oxaliplatin in cells co-expressing OCT2 and MATE1 [9]: reduced cellular accumulation of oxaliplatin
Mean Cmax ([4]; 150 mg po, day 24): 2120 ng/mL
Mean T1/2 ([4]; 150 mg po, day 24): 18.2 h
Mean Cmax ([4]; 150 mg po, single dose): 1140 ng/mL
Mean T1/2 ([4]; 150 mg po, single dose): 20 h
Plasma protein binding (%) ([4]; published data): 93%
Cmax ([4]; read-out: Mean Cmax, 150 mg po, day 24): 5400 nM
Cmax ([4]; read-out: Mean Cmax, 150 mg po, single dose): 2900 nM
Cmax ([4]; read-out: Plasma peak total concentration Cmax, published clinical pharmacokinetic data): 5400 nM
Plasma peak unbound concentration Cmax,u [10]: 380 nM
effect on cisplatin anti-proliferation potency in HT-29 (HT-29 cells): ignorable impact on cisplatin cytotoxicity
cytotoxicity of the inhibitor itself ([5]; 6 μM, without oxaliplatin, FIG. 6B): showed cytotoxicity itself without adding oxaliplatin
effect on oxaliplatin induced cytotoxicity in OCT2 expressing cells [5]: its EC50 value could not be obtained due to an ambiguous fitting
transporter preference in inhibiting oxaliplatin transport (OCT2 [8]): potent in suppressing OCT1 as well as OCT2

CCNC(=O)[C@@H]1CCCN1C(=O)[C@H](CCCNC(=N)N)NC(=O)[C@H](CC(C)C)NC(=O)[C@@H](CC(C)C)NC(=O)[C@H](Cc1ccc(O)cc1)NC(=O)[C@H](CO)NC(=O)[C@H](Cc1c[nH]c2ccccc12)NC(=O)[C@H](Cc1c[nH]cn1)NC(=O)[C@@H]1CCC(=O)N1 [Leuprolide]
IC50 (OCT2 [1]): 1.57 µM
inhibition at 30 min, 5 μM (OCT2 [1]): 76%
inhibition at 30 min, 50 μM (OCT2 [1]): 97%
potency estimated from few doses at 30 min (OCT2 [1]): 1.57 µM
Plasma peak unbound concentration Cmax,u [2]: 10 nM
potency estimated from few doses (OCT2 [11]): 2.8 µM
inhibition at 5 min, 5 μM (OCT2 [12]): 58%
inhibition at 5 min, 50 μM (OCT2 [12]): 91%
Inhibition % @ 20 μM (substrate ASP+) (OCT2 [3]; human, 20 μM): 88%
Cmax ([4]; human, in vivo): 17 nM
Plasma protein binding (%) ([4]; human, in vivo): 46%
IC50 (OCT2 [7]): 3.62 µM

O=C(O)C(=O)O.[NH-][C@@H]1CCCC[C@H]1[NH-].[Pt+2] [Oxaliplatin]
area of DRG neuron cell bodies and nucleoli (morphometry) ([13]; OXA 3.5 mg/kg iv twice a week for 4 weeks (8 cycles) ± BFMD 30 mg/kg ip + 15 mg/kg iv): significant decrease in the area
DRG histopathology (light and electron microscopy) ([13]; OXA 3.5 mg/kg iv, 8 cycles ± BFMD 30 mg/kg ip + 15 mg/kg iv): high incidence of multinucleolated cell bodies with eccentric nucleoli
mechanical allodynia, Dynamic Aesthesiometer Test at the end of treatment [14]: development of mechanical allodynia with a reduction in the latency until withdrawal
Cold Plate Test pain signs after third injection ([15]; 3 cycles): significant increase in pain signs versus CTRL and all groups of treatment
Cold Plate Test pain signs at the end of treatment (eight injections) ([15]; 8 cycles): significant increase in pain signs versus CTRL and BFMD
caudal nerve action potential amplitude [16]: significant decrease in caudal amplitude
caudal nerve conduction velocity [16]: significant reduction in caudal nerve conduction velocity vs. control mice
pharmacokinetic interaction between BFMD and OXA (plasma levels) [17]: unaffected by the presence of BFMD
patients with severe PN (Grade 3 or higher) ([18]; cumulative doses 510-765 mg/m^2): up to 10%
patients developing severe PN ([18]; cumulative doses above 1000 mg/m^2, Argriou 2012): approximately 50%
